# Experimental data reported in article PMC11134608, “UBR5 forms ligand-dependent complexes on chromatin to regulate nuclear hormone receptor stability” (Molecular cell, 2023).
# Where two headings read alike, the source gives them in different places.
# Columns and labels:
# ER reporter = ER reporter degradation; format: cell-based, human; conditions: 1 μM (legend, SERDs)
# Description: Reporter cell lines were seeded in triplicate at a density of 1 million cells/ml in 100 μl per well in a 96 well plate and measured once. Ligand was added by Digital Dispenser (Tecan), and incubated at 37°C for the appropriate time before reading by flow cytometry. Cells were analyzed for GFP vs mCherry expression. GFP expression was normalized to mCherry signal and ligand treatments were compared to DMSO controls.
# [1] = tested on: ER reporter (E3 ligase dependence); assay: Targeted CRISPR screens, ER reporter K562 cells: E3 ligase used; format: cell-based, human; conditions: for E3 ligase used for ER degradation: K562 ER reporter, CRISPR screen; for E3 Ligase (Table S2): Supplemental Table S2
# Description: To characterize the UPS pathway components involved in SERD-induced ER degradation, we performed CRISPR screens with our ER reporter in the presence multiple SERDs: fulvestrant, GDC-0927, elacestrant, giredestrant, camizestrant, amcenestrant, AZD-9496, brilanestrant, and LSZ-102. […] Taken together, these findings indicate that different classes of SERDs engage distinct ubiquitin ligases and degradation pathways to target ER.
# The UPS and tiling CRISPR functional genomics screen was performed following previously described methods.[22] Briefly, the UPS CRISPR library targets 713 E1, E2, E3 ubiquitin ligases, and deubiquitinases and includes controls genes with a total of 2852 guide RNAs, cloned into the pXPR003 backbone. The UBR5 Tiling screen was created by CRISPR-SURF.[29] Viruses were produced in a T-175 format and ten percent by volume of the library virus was added to reporter cell lines in triplicates for transduction. Transduced cells were allowed to recover and expand for nine days, then treated with indicated ligand. Top and bottom 5% of cells by GFP signal were sorted for a total of at least 100,000 cells per replicate. Samples were processed as previously described.[22]
# Reporter cell lines were treated with ATRA or 9-cis RA, and then sorted into four populations by eGFP/mCherry fluorescence ratios (Gates A-D), corresponding to the bottom and top 5–10% respectively (Figure S1D).[22],[23] Sorted cells were pelleted, lysed, and processed according to previous studies.[22] Briefly sgRNAs were amplified in two PCRs via Titanium Taq (Takara Bio 639210), Titanium Taq Buffer and 800uM dNTP mix and eight staggered forward primers. The first PCR also contained 200 nM SBS3-Stagger-pXPR003 forward primer and 200 nM SBS12-pXPR003 reverse primer (cycles: 5 minutes at 94°C, 15 × (30 sec at 94°C, 15 sec at 58°C, 30 sec at 72°C), 2 minutes at 72°C). Illumina adapters and barcodes were added in the second PCR (200 nM P5-SBS3 forward primer, 200 nM P7-barcode-SBS12 reverse primer). Samples were pooled and purified by agarose gel-electrophoresis (Qiagen) and NaOAc/isopropanol precipitation. Amplified guides were quantified by next-generation sequencing (Genomics Platform, Broad Institute), and analyzed for enrichment in Gate A over Gate D, representing degradation rescue.
# UBR5-RARA = assay: In vitro FLAG-UBR5 pull-down of His-tagged RARA; format: binding, human; conditions: 50 μM ligand, anti-His western, 25 mM HEPES pH 7.4, 125 mM NaCl, 0.05% TWEEN-20
# Description: 12 μL of FLAG M2 slurry were equilibrated with binding buffer (25 mM HEPES pH 7.4, 125 mM NaCl, 0.05% TWEEN-20). The resin was pelleted and excess buffer removed. 60 μL of fresh binding buffer was re-added, followed by addition of 15 pmol (2.5 μL ofa6 μM solution) of purified FLAG-UBR5 protein and incubated on a rotating wheel at 4°C for 60–90 minutes. The resin was pelleted, excess buffer removed, and 150 μL fresh binding buffer (supplemented with 50 μM ligand of interest or DMSO) added, followed by 150 pmol protein (binding partner protein of interest) and incubated for another 60 minutes. The resin was pelleted, excess buffer removed and washed with 400 μL of binding buffer (supplemented with ligand of interest or DMSO), and this process was repeated three times. The resin was pelleted, excess buffer removed and 45 μL of binding buffer supplemented with 1 mg/mL 3xFLAG peptide was added to elute proteins over 30 minutes on a rotating wheel at room temperature. The resin was pelleted, and 40 μL of the supernatant was collected and mixed with 12 μL of 5xSDS gel loading buffer. 6 μL of these samples were applied to SDS-PAGE on a 4–20% gradient gel (Biorad). The gel was transferred to a nitrocellulose membrane using the Trans-Blot Turbo Transfer System (Biorad). Following blocking with 5% skim milk solution in TBST, primary antibodies targeting the NR proteins were added in TBST and incubated overnight at 4 °C. The following day, membranes were washed thrice with TBST buffer and incubated for 45 minutes with fluorescent secondary antibody (Invitrogen A11357), followed by three more washes with TBST. Imaging was performed on a Licor Odyssey system, scanned at 800 nm.
# ER [2] = assay: ER degradation after RNF111 or UBR5 knockdown (reporter K562; T47D western); format: cell-based, human; conditions: K562 ER-GFP, shUBR5 / sgRNF111, Figure S8C, D
# Description: (§1) Cells were analyzed for GFP vs mCherry expression.
# Protein concentration was quantified via Pierce BCA Protein Assay Kit (ThermoFisher, 23225), and equal amounts of lysates were run on either SDS-PAGE 3–8% Tris-Acetate or 4–12% Bis-Tris Protein Gels (NuPAGE, ThermoFisher), then transferred to a PVDF membrane (Biorad, Wet Transfer System). Membranes were blocked for 30 minutes to 1 hour at room temperature in Odyssey Blocking Buffer/PBS (LI-COR Biosciences), and incubated with primary antibodies at 4 °C overnight. Stained membranes were washed three times in Tris-buffered saline with Tween 20 (TBS-T) and incubated for 1 hour at room temperature with secondary IRDye-conjugated antibodies (LI-COR Biosciences). Membranes were washed three times in TBS-T before imaging (Odyssey Imaging System, LI-COR Biosciences).
# [3] = tested on: HR+ HER2- advanced breast cancer; conditions: cited from earlier work; for clinical trial outcome, phase II: second-line treatment
# From the text: page 11: Supplemental Table S2: Clinical Development of Selective Estrogen Receptor Degraders (SERDs), related to Figure 6 Clinical Development Status for HR+ HER2- Advanced Compound Side Chain E3 Ligase Breast Cancer Treatment Fulvestrant Long Alkyl RNF111 FDA approved for first-line and second-line treatments1,2 FDA approved for second-line, ESR1-mutated disease Elacestrant (RAD1901) Basic Amino RNF111 treatment3,4; Ongoing phase III trial for first-line treatment (NCT05512364) Ongoing Phase III trial for first-line treatment Camizestrant (AZD9833) Basic Amino RNF111 (NCT04711252, NCT0496493 ...
# UBR5-RARA/RXRA = assay: In vitro FLAG-UBR5 pull-down of His-tagged RARA/RXRA heterodimer; format: binding, human; conditions: 50 μM ligand, pull-down, anti-His western; 25 mM HEPES pH 7.4, 125 mM NaCl, 0.05% TWEEN-20
# Description: The resin was pelleted and excess buffer removed. 60 μL of fresh binding buffer was re-added, followed by addition of 15 pmol (2.5 μL ofa6 μM solution) of purified FLAG-UBR5 protein and incubated on a rotating wheel at 4°C for 60–90 minutes. The resin was pelleted, excess buffer removed, and 150 μL fresh binding buffer (supplemented with 50 μM ligand of interest or DMSO) added, followed by 150 pmol protein (binding partner protein of interest) and incubated for another 60 minutes. The resin was pelleted, excess buffer removed and washed with 400 μL of binding buffer (supplemented with ligand of interest or DMSO), and this process was repeated three times. The resin was pelleted, excess buffer removed and 45 μL of binding buffer supplemented with 1 mg/mL 3xFLAG peptide was added to elute proteins over 30 minutes on a rotating wheel at room temperature. The resin was pelleted, and 40 μL of the supernatant was collected and mixed with 12 μL of 5xSDS gel loading buffer. 6 μL of these samples were applied to SDS-PAGE on a 4–20% gradient gel (Biorad). The gel was transferred to a nitrocellulose membrane using the Trans-Blot Turbo Transfer System (Biorad). Following blocking with 5% skim milk solution in TBST, primary antibodies targeting the NR proteins were added in TBST and incubated overnight at 4 °C. […]
# [4] = tested on: thyroid receptor beta (THRB); assay: THRB reporter degradation in U937; format: cell-based, human; conditions: for THRB degradation, significance: T3 vs DMSO, n = 3
# Description: as §1
# ER [5] = conditions: ref [17], [53]; cited from earlier work
# From the text: SERDs are a class of molecules targeting the ER for the treatment of breast cancer. […] Given that UBR5 is similarly recruited to the NR hydrophobic cleft, we hypothesized that fulvestrant and other SERDs may employ a different mechanism for ER degradation. […] One of the best understood SERDs, fulvestrant, drastically remodels the hydrophobic cleft[16],[17] in a manner incompatible with UBR5 or NCOA binding. […] Strikingly, this correlates with clinical utility, hallmarked by the wide use of fulvestrant and recent approval of elacestrant,[53] both of which employ RNF111, in contrast to UBR5 SERDs (Table S2), none of which have been approved for clinical use. The heterogeneity of ER transcriptional pro ...
# [6] = tested on: progesterone receptor (PGR); assay: PGR reporter degradation in U937; format: cell-based, human; conditions: for PGR degradation, significance: R5020 vs DMSO, n = 3
# Description: Additional NRs that have well-characterized ligand-induced degradation include vitamin D receptor (VDR),[46] progesterone receptor (PGR),[47] and thyroid receptor beta (THRB).[7]
# as §1
SMILES,ER reporter degradation (ER reporter),E3 ligase used for ER degradation [1],E3 Ligase (Table S2) [1],regulated class of ER degradation (RNF111 or UBR5) (ER [2]),further results
CCN(CCCCCOCC(=O)N[C@H](C(=O)N1C[C@H](O)C[C@H]1C(=O)N[C@@H](C)c1ccc(-c2scnc2C)cc1)C(C)(C)C)CCOc1ccc(C(=O)c2c(-c3ccc(O)cc3)sc3cc(O)ccc23)cc1 [ERD-308],induced ER reporter degradation,von Hippel-Lindau (VHL),VHL,,
"CC1=C(/C=C/C(C)=C\C=C\C(C)=C\C(=O)O)C(C)(C)CCC1 [9-cis RA, 9-cis-retinoic acid]",,,,,binding of RARA to UBR5 (UBR5-RARA): robustly induced binding of RARA to UBR5
CC1=C(c2cccc(O)c2)[C@H](c2ccc(OCCN3CC(CF)C3)cc2)Oc2ccc(O)cc21 [GDC-0927],induced ER reporter degradation,"employed a different E3 ligase, RNF111",RNF111,,
C[C@@H]1Cc2c([nH]c3ccccc23)[C@@H](c2c(F)cc(NC3CN(CCCF)C3)cc2F)N1CC(F)(F)CO [giredestrant],induced ER reporter degradation,"employed a different E3 ligase, RNF111",RNF111,RNF111 Regulated,"clinical trial outcome, phase II ([3]; giredestrant, NCT04576455, ref 6 (supplement)): Failed primary endpoint in phase II trial"
C[C@@H]1Cc2c(ccc3[nH]ncc23)[C@@H](c2ccc(NC3CN(CCCF)C3)cn2)N1CC(F)(F)F [camizestrant],induced ER reporter degradation,"employed a different E3 ligase, RNF111",RNF111,RNF111 Regulated,"clinical trial outcome, phase II ([3]; camizestrant, NCT04214288, ref 5 (supplement)): Successful phase II trial"
O=C(O)c1ccc2c(c1)CCCC(c1ccc(Cl)cc1Cl)=C2c1ccc(O[C@H]2CCN(CCCF)C2)cc1 [amcenestrant],induced ER reporter degradation,"employed a different E3 ligase, RNF111",RNF111,RNF111 Regulated,"clinical trial outcome, phase III ([3]; amcenestrant, first-line treatment, NCT04478266, ref 7 (supplement)): Failed primary endpoint phase III trial for first-line; clinical trial outcome, phase II ([3]; amcenestrant, NCT04059484, ref 8 (supplement)): Failed primary endpoint in"
O=C1CC[C@H](N2Cc3cc(N4CCN(CC5CCN(c6ccc([C@@H]7c8ccc(O)cc8CC[C@@H]7c7ccccc7)cc6)CC5)CC4)ccc3C2=O)C(=O)N1 [ARV-471],induced ER reporter degradation,Cereblon (CRBN),CRBN,,
CC1(C)CC=C(c2cnc3ccccc3c2)c2cc(C(=O)Nc3ccc(C(=O)O)cc3)ccc21 [BMS614],,,,,binding of RARA/RXRA to UBR5 (UBR5-RARA/RXRA): similarly hindered; binding of RARA to UBR5 (UBR5-RARA): prevented complex formation
CC(F)(F)c1cc(F)ccc1-c1sc2cc(O)ccc2c1Oc1ccc(/C=C/C(=O)O)cc1 [LSZ-102],induced ER reporter degradation,required UBR5 for degradation,UBR5,UBR5 Regulated,
"N[C@@H](Cc1cc(I)c(Oc2cc(I)c(O)c(I)c2)c(I)c1)C(=O)O [levothyroxine [T3], levothyroxine]",,,,,"THRB degradation, significance ([4]; LUC1 shRNA): ** (**p<0.005); THRB degradation, significance ([4]; LUC2 shRNA): ** (**p<0.005); THRB reporter degradation ([4]; U937, T3): confirmed degradation; UBR5 dependence of THRB degradation ([4]; U937, T3): not dependent on UBR5; THRB degradation, significance ([4]; UBR5-1 shRNA): ** (**p<0.005); THRB degradation, significance ([4]; UBR5-2 shRNA): ** (**p<0.005)"
C[C@@H]1Cc2c([nH]c3ccccc23)[C@@H](c2c(F)cc(/C=C/C(=O)O)cc2F)N1CC(C)(C)F [AZD-9496],induced ER reporter degradation,required UBR5 for degradation,UBR5,UBR5 Regulated,
CCNCCc1ccc(CN(CC)c2cc(OC)ccc2[C@@H]2CCc3cc(O)ccc3C2)cc1 [elacestrant],induced ER reporter degradation,"employed a different E3 ligase, RNF111",RNF111,RNF111 Regulated,ER degradation (literature) (ER [5]): lead to ER degradation
CCC(=O)[C@@]1(C)CC[C@H]2[C@@H]3CCC4=CC(=O)CCC4=C3CC[C@@]21C [R5020],,,,,"PGR degradation, significance ([6]; LUC1 shRNA): *** (***p<0.0005); PGR degradation, significance ([6]; LUC2 shRNA): * (*p<0.05); PGR reporter degradation ([6]; U937, R5020): confirmed degradation; effect of UBR5 shRNAs on PGR degradation ([6]; U937, R5020): rescued degradation"
